According to patent publication US20230348453A1, “HALOGENATED-HETEROARYL AND OTHER HETEROCYCLIC KINASE INHIBITORS, AND USES THEREOF” (iOmx Therapeutics AG, priority 2020, published 2023):

Key:
in vitro [1] = details: human, microsomes
[2] = microsomes
in vitro [3] = details: mouse, microsomes
SIK3 = SIK3 (Homo sapiens (Human), UniProt Q9Y2K2); details: read-out: SIK3 IC50
[4] = Human plasma-protein binding; details: Table 5A
[5] = microsomes; remark: listed apart in the source
[6] = Murine plasma protein binding; details: Table 5A

Question: Which “Kinetic solubility” value does the source give for `Cc1nc(Nc2ncc(C(=O)Nc3c(C)nn(C)c3C)s2)cc(N2CCN(CCO)CC2)n1` [Compound C8, 2-((6-(4-(2-hydroxyethyl)piperazin-1-yl)-2-methylpyrimidin-4-yl)amino)-N-(1,3,5-trimethyl-1H-pyrazol-4-yl)thiazole-5-carboxamide] here?
Answer: Its value is 189 µM.

Question: What about the half-life (in vitro [1]) of the same molecule?
Answer: The half-life was greater than 1.67 h.

Question: What about the Human liver microsomal stability, Intrinsic clearance [2] of the same molecule?
Answer: Its Human liver microsomal stability, Intrinsic clearance is less than 14 µL/min/mg.

Question: What about the half-life (in vitro [3]) of the same molecule?
Answer: The half-life was greater than 1.67 h.

Question: And the IC50 (SIK3)?
Answer: The IC50 was 9.73 µM.

Question: What about the “Human plasma-protein binding, Percentage unbound (%)” value [4] of the same molecule?
Answer: The value was 5%.

Question: And the Mouse liver microsomal stability, Intrinsic clearance (L/min/mg) [5]?
Answer: Its Mouse liver microsomal stability, Intrinsic clearance (L/min/mg) is less than 14 µL/min/mg.

Question: What about the “Murine plasma protein binding, Percentage unbound (%)” value [6] of the same molecule?
Answer: Its value is 62%.
